In brackets after ≈: the same amount, converted by molar mass.
Experiments:
physchem [1] = conditions: aqueous with cosolvent or surfactant or cyclodextrin
Experimental: In the first precipitation study, four solution formulations were prepared at a Kleptose concentration of 100 mg/mL. […] Then the solutions were stored in three conditions: (1) at ambient condition with mild mixing; (2) at ambient condition without mixing; (3) at 2-8° C. without mixing.
The corresponding drug concentration of each formulation was 300, 400, and 500 μg/mL so that the supersaturation ratio was about 5× for all the three formulations. […] In the study, the same experiments were repeated twice to evaluate the reproducibility of the results.

[2] = test system: primary human tumor xenograft model GA0087; assay: HuPrime gastric cancer xenograft GA0087 model, in vivo efficacy; design: species or system female BALB/c nude mice; conditions: single agent
Text: Tumor fragments from stock mice were harvested and used for inoculation into mice. Each mouse was inoculated subcutaneously at the right flank with primary human tumor xenograft model GA0087 tumor fragment (P7, 2-3 mm in diameter) for tumor development. […] After tumor inoculation, the animals were checked daily for morbidity and mortality. At the time of routine monitoring, the animals were checked for any effects of tumor growth and treatments on normal behavior such as mobility, food and water consumption, body weight gain/loss, eye/hair matting and any other abnormal effect. Death of euthanized mouse was recorded. All groups were terminated on Day 40. Three tumors in each group, with tumor volume near median of each group were collected. Plasma of the same mice were collected. For comparison among three or more groups, one-way ANOVA was performed followed by multiple comparison procedures. All data were analyzed using SPSS 18.0. P values <0.05 is considered to be statistically significant.

physchem [3] = type: physicochemical
Text: “Compound 1, Form C” or “Form C” or “API”” in the Examples herein refers to polymorph Form C of 2-(4-chlorophenyl)-N-((2-(2,6-dioxopiperidin-3-yl)-1-oxoisoindolin-5-yl)methyl)-2,2-difluoroacetamide. “Compound 1, Form A” or “Form A” in the Examples herein refers to polymorph Form A of 2-(4-chlorophenyl)-N-((2-(2,6-dioxopiperidin-3-yl)-1-oxoisoindolin-5-yl)methyl)-2,2-difluoroacetamide.

[4] = test system: caspase-3 activation and GSPT1 degradation in BMMCs from a MDS patient; assay: Apoptosis and GSPT1 degradation by flow cytometry 24 hours after exposure; type: cell-based, human; conditions: 24 hours exposure
[5] = test system: human QGP1 pancreatic somatostatinoma xenografts; conditions: mouse, in vivo
Experimental: Treatment began on Day 1 in nine groups of mice (n=10) with established subcutaneous QGP1 tumors. […] Tumors were measured using calipers twice each week to the end of the study on Day 52. Three tumors at or near the group median tumor volume 2000 mm^3 endpoint were sampled from each group.
Treatment efficacy was based on tumor growth inhibition (TGI), defined as the difference between the final (Day 52) median tumor volumes (MTVs) of treated and control mice. The results were analyzed utilizing the Mann-Whitney U-test, and were deemed statistically significant at P≤0.05. Drug tolerability was assessed by body weight measurements and by frequent observation of treated animals.

[6] = test system: GSPT1 and mTORC1 effectors in BON cells; assay: Western blot of BON cell lysates after 120 h treatment; type: cell-based
Experimental: BON cells were cultured in DMEM: F12K media containing 10% fetal bovine serum and penicillin/streptomycin antibiotics. […] Cells were harvested and probed with antibodies for western blots and imaged using a Li-Cor Odyssey imaging system. All total and phosphorylated antibodies were obtained from Cell Signaling Technology.

physchem [7] = type: physicochemical; conditions: organic solvent or mixture, thermodynamic from solid, drug solubility in formic acid
Experimental: A solvent screen was conducted to identify suitable Class 3 solvents listed in the ICH (International Conference on Harmonisation) Q3C Guidance as the Class 3 solvents have a higher permitted daily exposure (PDE) level of 50 mg/day. A good solvent candidate was considered to have 1) good miscibility with water and 2) sufficiently low boiling point so that it can be easily removed during the lyophilization process.

O=C1CCC(N2Cc3cc(CNC(=O)C(F)(F)c4ccc(Cl)cc4)ccc3C2=O)C(=O)N1 (stereo not shown) [Compound 1, 2-(4-chlorophenyl)-N-((2-(2,6-dioxopiperidin-3-yl)-1-oxoisoindolin-5-yl)methyl)-2,2-difluoroacetamide]
solubility at 2 days (physchem [1]): 135 µg/mL (≈ 292 µM)
solubility at 9 days (physchem [1]): 115 µg/mL (≈ 249 µM)
solubility at 34 days (physchem [1]): 98 µg/mL (≈ 212 µM)
tumor growth inhibition (mean tumor volume) [2]: showed tumor growth inhibition
anti-tumor activity ([2]; 1.25 mg/kg and 2.5 mg/kg): moderate anti-tumor activity
anti-tumor activity ([2]; 5 mg/kg): prominent anti-tumor activity
Hygroscopicity (physchem [3]): Not hygroscopic
Solid State Stability (physchem [3]): DS is physically stable under all storage conditions.
chemical stability in solution (physchem [3]; pH 5): chemically instable in solution above pH 5
solubility (physchem [3]; water): ≤ 1 µg/mL
Caspase 3 activation [4]: activated
GSPT1 degradation [4]: degraded
weight loss [5]: 1.6-6.8%
GSPT1 degradation [6]: dose dependent GSPT1 degradation
effect on mTORC1 effectors (p4EBP1, phosphorylation of S6) [6]: no direct effect
solubility (physchem [7]): ~170000 µg/mL (≈ 368000 µM)
